Results on eight molecules are retold here after ChEMBL document CHEMBL5053508, “Optimization of Beclin 1-Targeting Stapled Peptides by Staple Scanning Leads to Enhanced Antiproliferative Potency in Cancer Cells” (J Med Chem, 2021).

For one series, the target named is Beclin-1 (Homo sapiens, UniProt Q14457). As to the kind of experiment: Binding affinity to Beclin 1 coiled coil domain (unknown origin) by isothermal titration calorimetry assay. On the technique in general: In ITC the heat of successive injections is recorded.
Chain of Beclin-1 (Q14457 whole entry, the tested form may be a part): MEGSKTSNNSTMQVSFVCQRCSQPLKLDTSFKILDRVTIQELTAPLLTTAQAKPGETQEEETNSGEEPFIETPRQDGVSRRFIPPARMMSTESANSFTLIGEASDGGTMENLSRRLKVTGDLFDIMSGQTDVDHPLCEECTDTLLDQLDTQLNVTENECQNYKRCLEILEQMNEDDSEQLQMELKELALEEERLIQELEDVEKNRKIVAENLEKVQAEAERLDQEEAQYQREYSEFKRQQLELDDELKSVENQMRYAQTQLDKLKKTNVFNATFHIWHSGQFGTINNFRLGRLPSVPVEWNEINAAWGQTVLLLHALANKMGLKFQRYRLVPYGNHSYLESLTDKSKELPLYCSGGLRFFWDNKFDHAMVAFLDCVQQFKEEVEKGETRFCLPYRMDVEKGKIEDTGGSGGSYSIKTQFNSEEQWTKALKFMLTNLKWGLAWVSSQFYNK
Series [1] has as its system SK-BR-3. Nature of the series: Antiproliferative activity against human SK-BR-3 cells assessed as reduction of cell growth measured after 24 hrs by trypan blue exclusion assay. As to conditions: SK-BR-3, 24 h.
A further series concerns HEK-293T. As to the kind of experiment: Cytotoxicity against HEK293T cells assessed as reduction in cell viability at 10 to 20 uM measured after 24 hrs by trypan blue exclusion assay. In kind it is cell-based. As to conditions: human, dose 10-20 µM.
For series [2], the system named is SK-BR-3. As to the kind of experiment: Antiproliferative activity against human SK-BR-3 cells assessed as reduction in cell growth incubated for 5 days by trypan blue exclusion assay. As to conditions: time 5.0 day. In kind it is functional, cell-based.
Series [3] relates to SK-BR-3. Nature of the series: Induction of apoptosis in human SK-BR-3 cells assessed as increase in cleaved caspase-3 expression at 0.15 uM incubated for 48 hrs by western blot analysis. In kind it is functional, cell-based. (A western blot detects proteins with antibodies after separation by electrophoresis.)
Series [4] deals with SK-BR-3. As to the kind of experiment: Induction of apoptosis in human SK-BR-3 cells assessed as increase in cleaved PARP expression at 0.15 uM incubated for 48 hrs by western blot analysis. In kind it is functional, cell-based.

Molecules are shown by their SMILES. Active and inactive are the calls of the source. No cut-off for these calls is given here.

As to `CC[C@H](C)[C@H](NC(=O)[C@H](CC(C)C)NC(=O)[C@H](CCCNC(=N)N)NC(=O)[C@H](CCCNC(=N)N)NC(=O)[C@H](CCCNC(=N)N)NC(=O)[C@H](CCCNC(=N)N)NC(=O)[C@H](CCC(N)=O)NC(=O)[C@H](CCCNC(=N)N)NC(=O)[C@H](CCCNC(=N)N)NC(=O)[C@H](CCCCN)NC(=O)[C@H](CCCCN)NC(=O)[C@H](CCCNC(=N)N)NC(=O)CNC(=O)[C@H](Cc1ccc(O)cc1)NC(C)=O)C(=O)N[C@@H](CO)C(=O)N[C@@H](CCC(=O)O)C(=O)N[C@@H](CC(C)C)C(=O)N[C@@H]1CCCCCC/C=C/CCC[C@@H](C(=O)N[C@@H](C)C(N)=O)NC(=O)[C@H](CCCNC(=N)N)NC(=O)[C@H](CCC(N)=O)NC(=O)[C@H](CCCCN)NC(=O)[C@H](CCC(=O)O)NC(=O)[C@H](CCCNC(=N)N)NC(=O)[C@H](CC(=O)O)NC1=O`, the Kd (as a rule, the equilibrium constant for the complex coming apart) on Beclin-1 stood at 3.21 µM.
Same read-out and setting: the same measure for `CC[C@H](C)[C@H](NC(=O)[C@H](CC(C)C)NC(=O)[C@H](C)NC(=O)[C@H](CCCNC(=N)N)NC(=O)[C@H](CCCNC(=N)N)NC(=O)[C@H](CCCNC(=N)N)NC(=O)[C@H](CCC(N)=O)NC(=O)[C@H](CCCNC(=N)N)NC(=O)[C@H](CCCNC(=N)N)NC(=O)[C@H](CCCCN)NC(=O)[C@H](CCCCN)NC(=O)[C@H](CCCNC(=N)N)NC(=O)CNC(=O)[C@H](Cc1ccc(O)cc1)NC(C)=O)C(=O)N[C@@H](CCC(N)=O)C(=O)N[C@@H]1CCCCCC/C=C/CCC[C@@H](C(=O)N[C@@H](CCCNC(=N)N)C(=O)N[C@@H](CCCCN)C(=O)N[C@@H](CCCNC(=N)N)C(N)=O)NC(=O)[C@H](CCCCN)NC(=O)[C@H](CCC(=O)O)NC(=O)[C@H](C(C)C)NC(=O)[C@H](CC(=O)O)NC(=O)[C@H](CCC(=O)O)NC(=O)[C@H](CCC(N)=O)NC1=O`: 311 µM.
At Beclin-1, `CC[C@H](C)[C@H](NC(=O)[C@H](CC(C)C)NC(=O)[C@H](CCCNC(=N)N)NC(=O)[C@H](CCCNC(=N)N)NC(=O)[C@H](CCCNC(=N)N)NC(=O)[C@H](CCCNC(=N)N)NC(=O)[C@H](CCC(N)=O)NC(=O)[C@H](CCCNC(=N)N)NC(=O)[C@H](CCCNC(=N)N)NC(=O)[C@H](CCCCN)NC(=O)[C@H](CCCCN)NC(=O)[C@H](CCCNC(=N)N)NC(=O)CNC(=O)[C@H](Cc1ccc(O)cc1)NC(C)=O)C(=O)N[C@H](C(=O)N[C@@H]1CCCCCC/C=C/CCC[C@@H](C(=O)N[C@@H](CCCNC(=N)N)C(=O)N[C@@H](CCCCN)C(=O)N[C@@H](CCCNC(=N)N)C(N)=O)NC(=O)[C@H](CCCCN)NC(=O)[C@H](CCC(=O)O)NC(=O)[C@H](C(C)C)NC(=O)[C@H](CC(=O)O)NC(=O)[C@H](CCC(=O)O)NC(=O)[C@H](CCC(N)=O)NC1=O)[C@@H](C)CC` returned a Kd of 356 µM.
Regarding `CC[C@H](C)[C@H](NC(=O)[C@H](CC(C)C)NC(=O)[C@H](CCCNC(=N)N)NC(=O)[C@H](CCCNC(=N)N)NC(=O)[C@H](CCCNC(=N)N)NC(=O)[C@H](CCCNC(=N)N)NC(=O)[C@H](CCC(N)=O)NC(=O)[C@H](CCCNC(=N)N)NC(=O)[C@H](CCCNC(=N)N)NC(=O)[C@H](CCCCN)NC(=O)[C@H](CCCCN)NC(=O)[C@H](CCCNC(=N)N)NC(=O)CNC(=O)[C@H](Cc1ccc(O)cc1)NC(C)=O)C(=O)N[C@@H](CCC(N)=O)C(=O)N[C@@H]1CCCCCC/C=C/CCC[C@@H](C(=O)N[C@@H](CCCNC(=N)N)C(=O)N[C@@H](CCCCN)C(=O)N[C@@H](CCCNC(=N)N)C(N)=O)NC(=O)[C@H](CCCCN)NC(=O)[C@H](CCC(=O)O)NC(=O)[C@H](C(C)C)NC(=O)[C@H](CC(=O)O)NC(=O)[C@H](CCC(=O)O)NC(=O)[C@H](CCCNC(=N)N)NC1=O`, the outcome at Beclin-1 was inactive.
As to `CC[C@H](C)[C@H](NC(=O)[C@@H](NC(=O)[C@H](CCCNC(=N)N)NC(=O)[C@H](CCCNC(=N)N)NC(=O)[C@H](CCCNC(=N)N)NC(=O)[C@H](CCCNC(=N)N)NC(=O)[C@H](CCC(N)=O)NC(=O)[C@H](CCCNC(=N)N)NC(=O)[C@H](CCCNC(=N)N)NC(=O)[C@H](CCCCN)NC(=O)[C@H](CCCCN)NC(=O)[C@H](CCCNC(=N)N)NC(=O)CNC(=O)[C@H](Cc1ccc(O)cc1)NC(C)=O)C(C)C)C(=O)N[C@@H](CCC(N)=O)C(=O)N[C@@H]1CCCCCC/C=C/CCC[C@@H](C(=O)N[C@@H](CCCNC(=N)N)C(=O)N[C@@H](CC(=O)O)C(=O)N[C@H](C(N)=O)C(C)C)NC(=O)[C@H](CCCCN)NC(=O)[C@H](CCC(=O)O)NC(=O)[C@H]([C@@H](C)CC)NC(=O)[C@H]([C@@H](C)CC)NC(=O)[C@H](C(C)C)NC(=O)[C@H](CC(C)C)NC1=O`, the IC50 (commonly the concentration that inhibits the measured activity by half) in the series on SK-BR-3 [1] worked out at 13.6 µM. Moreover, the values for the Activity result in the series with HEK-293T and with SK-BR-3 [2] were “Non-Toxic” and “Dose-dependent effect”, respectively.
Regarding `CC(=O)O[C@H]1C(=O)[C@@]2(C)[C@H]([C@H](OC(=O)c3ccccc3)[C@]3(O)C[C@H](OC(=O)[C@H](O)[C@@H](NC(=O)c4ccccc4)c4ccccc4)C(C)=C1C3(C)C)[C@]1(OC(C)=O)CO[C@@H]1C[C@@H]2O`, the result in the series on SK-BR-3 [3] and in the series on SK-BR-3 [4] was Active.
As to `CC(=O)N[C@@H](Cc1ccc(O)cc1)C(=O)NCC(=O)N[C@@H](CCCNC(=N)N)C(=O)N[C@@H](CCCCN)C(=O)N[C@@H](CCCCN)C(=O)N[C@@H](CCCNC(=N)N)C(=O)N[C@@H](CCCNC(=N)N)C(=O)N[C@@H](CCC(N)=O)C(=O)N[C@@H](CCCNC(=N)N)C(=O)N[C@@H](CCCNC(=N)N)C(=O)N[C@@H](CCCNC(=N)N)C(=O)N[C@@H](CCCNC(=N)N)C(=O)N[C@@H](CC(C)C)C(=O)N[C@@H](CC(C)C)C(=O)N[C@@H](CCC(N)=O)C(=O)N[C@@H]1CCCCCC/C=C/CCC[C@@H](C(=O)N[C@@H](CCCNC(=N)N)C(=O)N[C@@H](CO)C(=O)N[C@H](C(N)=O)C(C)C)NC(=O)[C@H](CCCCN)NC(=O)[C@H](CC(C)C)NC(=O)[C@H](C(C)C)NC(=O)[C@H]([C@@H](C)O)NC(=O)[C@H](CCCCN)NC(=O)[C@H](CC(C)C)NC1=O`, the outcome on Beclin-1 was inactive.
For `CC[C@H](C)[C@H](NC(=O)[C@H](Cc1ccccc1)NC(=O)[C@H](CCCNC(=N)N)NC(=O)[C@H](CCCNC(=N)N)NC(=O)[C@H](CCCNC(=N)N)NC(=O)[C@H](CCCNC(=N)N)NC(=O)[C@H](CCC(N)=O)NC(=O)[C@H](CCCNC(=N)N)NC(=O)[C@H](CCCNC(=N)N)NC(=O)[C@H](CCCCN)NC(=O)[C@H](CCCCN)NC(=O)[C@H](CCCNC(=N)N)NC(=O)CNC(=O)[C@H](Cc1ccc(O)cc1)NC(C)=O)C(=O)N[C@@H](CCC(N)=O)C(=O)N[C@@H]1CCCCCC/C=C/CCC[C@@H](C(=O)N[C@@H](CCCNC(=N)N)C(=O)N[C@@H](CO)C(=O)N[C@H](C(N)=O)C(C)C)NC(=O)[C@H](CCCCN)NC(=O)[C@H]([C@@H](C)CC)NC(=O)[C@H](C(C)C)NC(=O)[C@H](C(C)C)NC(=O)[C@H](CCC(=O)O)NC(=O)[C@H](CC(C)C)NC1=O`, at Beclin-1, the outcome was inactive.
